Measured values published in the kinase profiling compilation of Christmann-Franck et al. (2016).

How the values were obtained:
CDK16 (human) = CDK16 (human) (UniProt Q00536); experiment: KINOMEscan competition binding; conditions: compound 10.0 µM
PIM1 (human) [1] = target: PIM1 (human) (UniProt P11309); experiment: KINOMEscan competition binding; conditions: compound 10.0 µM
MAP2K3 (human) = MAP2K3 (human) (UniProt P46734); experiment: KINOMEscan competition binding; conditions: compound 10.0 µM
MAP2K3 (human), sequence (P46734 whole entry, looked up): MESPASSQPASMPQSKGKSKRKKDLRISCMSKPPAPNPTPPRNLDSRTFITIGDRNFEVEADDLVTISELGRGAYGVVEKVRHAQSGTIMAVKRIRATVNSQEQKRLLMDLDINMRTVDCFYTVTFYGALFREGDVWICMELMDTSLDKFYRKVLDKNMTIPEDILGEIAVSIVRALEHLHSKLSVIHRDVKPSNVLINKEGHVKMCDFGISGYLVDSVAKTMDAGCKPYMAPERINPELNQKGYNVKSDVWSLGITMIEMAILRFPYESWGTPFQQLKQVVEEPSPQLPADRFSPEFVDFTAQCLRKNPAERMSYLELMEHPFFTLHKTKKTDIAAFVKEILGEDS

MYO3B (human) = MYO3B (human) (UniProt Q8WXR4); experiment: KINOMEscan competition binding; conditions: compound 10.0 µM
PIM2 (human) [2] = target: PIM2 (human) (UniProt Q9P1W9); experiment: KINOMEscan competition binding; conditions: compound 10.0 µM
PIM2 (human), sequence (Q9P1W9 whole entry, looked up): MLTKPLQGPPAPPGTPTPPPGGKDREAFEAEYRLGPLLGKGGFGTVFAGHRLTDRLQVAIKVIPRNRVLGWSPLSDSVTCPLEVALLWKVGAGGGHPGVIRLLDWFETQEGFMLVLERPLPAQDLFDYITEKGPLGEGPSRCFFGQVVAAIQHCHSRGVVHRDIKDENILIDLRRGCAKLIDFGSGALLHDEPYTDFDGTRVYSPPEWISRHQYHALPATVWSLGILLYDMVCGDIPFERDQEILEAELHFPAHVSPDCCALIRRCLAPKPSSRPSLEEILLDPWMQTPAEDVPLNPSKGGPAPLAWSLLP

PIM3 (human) = PIM3 (human) (UniProt Q86V86); experiment: KINOMEscan competition binding; conditions: compound 10.0 µM
HIPK1 (human) = HIPK1 (human) (UniProt Q86Z02); experiment: KINOMEscan competition binding; conditions: compound 10.0 µM
PIM1 (human) [3] = target: PIM1 (human) (UniProt P11309); experiment: SelectScreen, TR FRET
PIM2 (human) [4] = target: PIM2 (human) (UniProt Q9P1W9); experiment: SelectScreen, TR FRET
TLK1 (human) = TLK1 (human) (UniProt Q9UKI8); experiment: KINOMEscan competition binding; conditions: compound 10.0 µM
[5] = target: JAK1 JH2 pseudokinase (human) (UniProt P23458); experiment: KINOMEscan competition binding; conditions: compound 10.0 µM
STK17B (human) = STK17B (human) (UniProt O94768); experiment: KINOMEscan competition binding; conditions: compound 10.0 µM
MAP3K7 (human) = MAP3K7 (human) (UniProt O43318); experiment: KINOMEscan competition binding; conditions: compound 10.0 µM
DAPK2 (human) = DAPK2 (human) (UniProt Q9UIK4); experiment: KINOMEscan competition binding; conditions: compound 10.0 µM
DAPK2 (human), sequence (Q9UIK4 whole entry, looked up): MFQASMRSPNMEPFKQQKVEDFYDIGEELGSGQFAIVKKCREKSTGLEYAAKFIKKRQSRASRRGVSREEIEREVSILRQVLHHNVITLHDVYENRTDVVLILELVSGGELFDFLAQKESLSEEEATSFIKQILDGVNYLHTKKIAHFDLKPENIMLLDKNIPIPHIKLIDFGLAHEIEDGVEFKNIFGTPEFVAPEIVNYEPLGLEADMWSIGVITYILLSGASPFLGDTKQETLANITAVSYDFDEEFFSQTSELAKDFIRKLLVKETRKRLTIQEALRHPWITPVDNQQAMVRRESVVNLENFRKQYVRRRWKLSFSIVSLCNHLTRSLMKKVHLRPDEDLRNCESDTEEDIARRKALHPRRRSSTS

MAPKAPK5 (human) = MAPKAPK5 (human) (UniProt Q8IW41); experiment: KINOMEscan competition binding; conditions: compound 10.0 µM
STK24 (human) = STK24 (human) (UniProt Q9Y6E0); experiment: KINOMEscan competition binding; conditions: compound 10.0 µM
DYRK1B (human) = DYRK1B (human) (UniProt Q9Y463); experiment: KINOMEscan competition binding; conditions: compound 10.0 µM
RIPK4 (human) = RIPK4 (human) (UniProt P57078); experiment: KINOMEscan competition binding; conditions: compound 10.0 µM
TGFBR2 (human) = TGFBR2 (human) (UniProt P37173); experiment: KINOMEscan competition binding; conditions: compound 10.0 µM
PLK4 (human) = PLK4 (human) (UniProt O00444); experiment: KINOMEscan competition binding; conditions: compound 10.0 µM
PLK4 (human), sequence (O00444 whole entry, looked up): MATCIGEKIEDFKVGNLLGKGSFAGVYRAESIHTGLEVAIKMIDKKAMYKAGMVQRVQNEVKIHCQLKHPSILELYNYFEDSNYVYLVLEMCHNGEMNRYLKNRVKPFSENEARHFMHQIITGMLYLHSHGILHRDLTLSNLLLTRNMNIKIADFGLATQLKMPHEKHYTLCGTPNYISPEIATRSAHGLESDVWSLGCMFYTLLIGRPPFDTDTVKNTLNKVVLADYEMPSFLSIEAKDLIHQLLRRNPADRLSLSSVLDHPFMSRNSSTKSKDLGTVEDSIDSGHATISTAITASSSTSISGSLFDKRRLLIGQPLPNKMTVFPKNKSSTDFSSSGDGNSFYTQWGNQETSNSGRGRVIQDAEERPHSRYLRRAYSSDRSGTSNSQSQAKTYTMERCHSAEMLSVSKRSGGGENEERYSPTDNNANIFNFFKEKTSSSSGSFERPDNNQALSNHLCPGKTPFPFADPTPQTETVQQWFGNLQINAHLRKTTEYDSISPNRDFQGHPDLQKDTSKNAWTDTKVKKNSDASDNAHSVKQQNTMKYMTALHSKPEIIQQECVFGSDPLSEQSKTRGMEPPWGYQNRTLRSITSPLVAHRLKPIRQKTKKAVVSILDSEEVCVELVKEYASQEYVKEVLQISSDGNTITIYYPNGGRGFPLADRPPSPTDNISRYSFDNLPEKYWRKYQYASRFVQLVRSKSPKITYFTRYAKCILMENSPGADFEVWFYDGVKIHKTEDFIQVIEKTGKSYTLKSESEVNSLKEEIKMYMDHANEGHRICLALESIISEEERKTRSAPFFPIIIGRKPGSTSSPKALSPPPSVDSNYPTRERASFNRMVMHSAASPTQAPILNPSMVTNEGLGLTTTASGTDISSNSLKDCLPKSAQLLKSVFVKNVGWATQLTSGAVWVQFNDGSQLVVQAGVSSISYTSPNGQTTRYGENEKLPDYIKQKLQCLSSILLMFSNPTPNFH

GSK3A (human) = GSK3A (human) (UniProt P49840); experiment: KINOMEscan competition binding; conditions: compound 10.0 µM
STK17A (human) = STK17A (human) (UniProt Q9UEE5); experiment: KINOMEscan competition binding; conditions: compound 10.0 µM
ACVR2B (human) = ACVR2B (human) (UniProt Q13705); experiment: KINOMEscan competition binding; conditions: compound 10.0 µM
CSNK2A2 (human) = CSNK2A2 (human) (UniProt P19784); experiment: KINOMEscan competition binding; conditions: compound 10.0 µM
CSNK1E (human) = CSNK1E (human) (UniProt P49674); experiment: KINOMEscan competition binding; conditions: compound 10.0 µM
DAPK1 (human) = DAPK1 (human) (UniProt P53355); experiment: KINOMEscan competition binding; conditions: compound 10.0 µM
ANKK1 (human) = ANKK1 (human) (UniProt Q8NFD2); experiment: KINOMEscan competition binding; conditions: compound 10.0 µM
RPS6KA2 KD2 (human) = RPS6KA2 KD2 (human) (UniProt Q15349); experiment: KINOMEscan competition binding; conditions: compound 10.0 µM
RPS6KA2 KD2 (human), sequence (Q15349 whole entry, looked up): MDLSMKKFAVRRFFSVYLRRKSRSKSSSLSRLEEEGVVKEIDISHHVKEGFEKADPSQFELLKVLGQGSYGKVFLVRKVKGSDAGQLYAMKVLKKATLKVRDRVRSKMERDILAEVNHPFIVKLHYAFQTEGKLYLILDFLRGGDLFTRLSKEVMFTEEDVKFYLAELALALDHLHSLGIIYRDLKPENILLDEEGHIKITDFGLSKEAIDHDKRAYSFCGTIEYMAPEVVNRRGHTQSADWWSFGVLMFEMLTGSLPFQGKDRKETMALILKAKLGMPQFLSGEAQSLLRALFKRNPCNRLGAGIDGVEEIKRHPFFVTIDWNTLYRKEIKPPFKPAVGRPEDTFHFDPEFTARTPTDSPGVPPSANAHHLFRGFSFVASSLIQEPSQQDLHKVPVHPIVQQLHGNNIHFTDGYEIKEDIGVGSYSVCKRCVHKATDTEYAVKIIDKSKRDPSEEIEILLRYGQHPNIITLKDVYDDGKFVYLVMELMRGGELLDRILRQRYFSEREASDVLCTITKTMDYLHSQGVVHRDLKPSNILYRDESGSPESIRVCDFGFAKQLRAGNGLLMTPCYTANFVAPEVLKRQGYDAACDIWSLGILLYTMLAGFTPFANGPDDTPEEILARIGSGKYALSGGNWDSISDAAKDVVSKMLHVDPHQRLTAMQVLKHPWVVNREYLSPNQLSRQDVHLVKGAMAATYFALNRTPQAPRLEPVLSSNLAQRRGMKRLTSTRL

[6] = target: TYK2 JH2 pseudokinase (human) (UniProt P29597); experiment: KINOMEscan competition binding; conditions: compound 10.0 µM
MAP4K2 (human) = MAP4K2 (human) (UniProt Q12851); experiment: KINOMEscan competition binding; conditions: compound 10.0 µM
RPS6KA6 KD2 (human) = RPS6KA6 KD2 (human) (UniProt Q9UK32); experiment: KINOMEscan competition binding; conditions: compound 10.0 µM
RPS6KA6 KD2 (human), sequence (Q9UK32 whole entry, looked up): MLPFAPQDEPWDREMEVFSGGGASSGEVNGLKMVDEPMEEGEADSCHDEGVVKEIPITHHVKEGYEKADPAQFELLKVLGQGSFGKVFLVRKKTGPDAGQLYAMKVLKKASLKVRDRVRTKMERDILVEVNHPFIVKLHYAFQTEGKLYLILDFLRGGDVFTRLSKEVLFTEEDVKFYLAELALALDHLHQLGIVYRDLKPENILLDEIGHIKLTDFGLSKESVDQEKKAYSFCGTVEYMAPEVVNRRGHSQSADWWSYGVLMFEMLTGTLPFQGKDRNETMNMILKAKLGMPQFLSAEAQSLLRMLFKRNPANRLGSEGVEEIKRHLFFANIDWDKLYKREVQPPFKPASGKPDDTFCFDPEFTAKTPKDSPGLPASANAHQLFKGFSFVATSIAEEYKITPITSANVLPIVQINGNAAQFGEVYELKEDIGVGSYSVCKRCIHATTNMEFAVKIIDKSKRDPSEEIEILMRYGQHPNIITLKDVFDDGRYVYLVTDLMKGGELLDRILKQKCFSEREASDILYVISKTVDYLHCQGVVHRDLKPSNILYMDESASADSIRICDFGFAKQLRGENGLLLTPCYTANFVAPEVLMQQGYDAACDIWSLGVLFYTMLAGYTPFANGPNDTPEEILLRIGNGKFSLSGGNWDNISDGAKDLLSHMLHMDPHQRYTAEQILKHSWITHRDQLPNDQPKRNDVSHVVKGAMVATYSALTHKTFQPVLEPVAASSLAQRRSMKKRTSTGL

RPS6KA1 KD2 (human) = RPS6KA1 KD2 (human) (UniProt Q15418); experiment: KINOMEscan competition binding; conditions: compound 10.0 µM
GSK3B (human) = GSK3B (human) (UniProt P49841); experiment: KINOMEscan competition binding; conditions: compound 10.0 µM
TTK (human) [7] = target: TTK (human) (UniProt P33981); experiment: SelectScreen, TR FRET
TTK (human), sequence (P33981 whole entry, looked up): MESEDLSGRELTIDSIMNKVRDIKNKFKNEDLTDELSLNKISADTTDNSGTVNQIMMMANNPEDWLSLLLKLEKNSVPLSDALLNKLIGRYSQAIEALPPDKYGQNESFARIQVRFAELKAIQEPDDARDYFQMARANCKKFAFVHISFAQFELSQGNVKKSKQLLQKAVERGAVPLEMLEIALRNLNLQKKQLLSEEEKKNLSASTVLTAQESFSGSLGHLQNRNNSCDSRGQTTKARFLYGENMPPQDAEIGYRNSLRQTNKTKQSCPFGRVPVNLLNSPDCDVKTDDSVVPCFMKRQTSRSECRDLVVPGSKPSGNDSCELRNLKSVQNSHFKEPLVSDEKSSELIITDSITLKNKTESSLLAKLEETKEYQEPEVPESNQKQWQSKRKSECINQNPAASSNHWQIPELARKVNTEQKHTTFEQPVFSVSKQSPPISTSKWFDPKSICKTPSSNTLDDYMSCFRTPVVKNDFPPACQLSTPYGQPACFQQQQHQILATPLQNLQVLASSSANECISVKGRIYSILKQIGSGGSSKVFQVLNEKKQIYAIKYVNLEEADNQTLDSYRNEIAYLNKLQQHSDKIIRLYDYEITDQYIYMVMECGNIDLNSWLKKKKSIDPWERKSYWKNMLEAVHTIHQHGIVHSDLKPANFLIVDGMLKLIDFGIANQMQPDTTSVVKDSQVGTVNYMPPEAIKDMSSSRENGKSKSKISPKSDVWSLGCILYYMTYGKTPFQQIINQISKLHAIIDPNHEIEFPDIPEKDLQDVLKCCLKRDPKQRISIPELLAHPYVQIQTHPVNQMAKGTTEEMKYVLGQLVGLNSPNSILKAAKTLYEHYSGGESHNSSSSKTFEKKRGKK

ALK (human) = ALK (human) (UniProt Q9UM73); experiment: KINOMEscan competition binding; conditions: compound 10.0 µM
DAPK3 (human) = DAPK3 (human) (UniProt O43293); experiment: KINOMEscan competition binding; conditions: compound 10.0 µM
CAMK2A (human) = CAMK2A (human) (UniProt Q9UQM7); experiment: KINOMEscan competition binding; conditions: compound 10.0 µM
TNK1 (human) = TNK1 (human) (UniProt Q13470); experiment: KINOMEscan competition binding; conditions: compound 10.0 µM
MAPK7 (human) = MAPK7 (human) (UniProt Q13164); experiment: KINOMEscan competition binding; conditions: compound 10.0 µM
PLK1 (human) = PLK1 (human) (UniProt P53350); experiment: KINOMEscan competition binding; conditions: compound 10.0 µM
CAMKK2 (human) = CAMKK2 (human) (UniProt Q96RR4); experiment: KINOMEscan competition binding; conditions: compound 10.0 µM
TTK (human) [8] = target: TTK (human) (UniProt P33981); experiment: KINOMEscan competition binding
PTK2 (human) = PTK2 (human) (UniProt Q05397); experiment: KINOMEscan competition binding; conditions: compound 10.0 µM
MINK1 (human) = MINK1 (human) (UniProt Q8N4C8); experiment: KINOMEscan competition binding; conditions: compound 10.0 µM
PRKD1 (human) = PRKD1 (human) (UniProt Q15139); experiment: KINOMEscan competition binding; conditions: compound 10.0 µM
DCLK1 (human) = DCLK1 (human) (UniProt O15075); experiment: KINOMEscan competition binding; conditions: compound 10.0 µM
CAMKK1 (human) = CAMKK1 (human) (UniProt Q8N5S9); experiment: KINOMEscan competition binding; conditions: compound 10.0 µM
DCLK2 (human) = DCLK2 (human) (UniProt Q8N568); experiment: KINOMEscan competition binding; conditions: compound 10.0 µM
PLK3 (human) = PLK3 (human) (UniProt Q9H4B4); experiment: KINOMEscan competition binding; conditions: compound 10.0 µM
CLK2 (human) = CLK2 (human) (UniProt P49760); experiment: KINOMEscan competition binding; conditions: compound 10.0 µM
MYLK (human) = MYLK (human) (UniProt Q15746); experiment: KINOMEscan competition binding; conditions: compound 10.0 µM
MET (human) = MET (human) (UniProt P08581); experiment: KINOMEscan competition binding; conditions: compound 10.0 µM
GAK (human) = GAK (human) (UniProt O14976); experiment: KINOMEscan competition binding; conditions: compound 10.0 µM
SLK (human) = SLK (human) (UniProt Q9H2G2); experiment: KINOMEscan competition binding; conditions: compound 10.0 µM
STK33 (human) = STK33 (human) (UniProt Q9BYT3); experiment: KINOMEscan competition binding; conditions: compound 10.0 µM

PIM1 (human), sequence (P11309 whole entry, looked up): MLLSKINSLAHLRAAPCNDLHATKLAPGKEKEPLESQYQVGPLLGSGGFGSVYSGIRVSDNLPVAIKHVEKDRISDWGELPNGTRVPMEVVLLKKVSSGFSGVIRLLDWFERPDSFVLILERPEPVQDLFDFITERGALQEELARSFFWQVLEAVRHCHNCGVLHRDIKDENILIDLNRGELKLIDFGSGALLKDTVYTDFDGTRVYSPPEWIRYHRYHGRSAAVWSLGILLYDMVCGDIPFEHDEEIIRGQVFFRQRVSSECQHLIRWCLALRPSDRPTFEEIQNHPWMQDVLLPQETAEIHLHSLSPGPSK

## N=C1NC(=O)/C(=C/c2cccc(-c3ccc(S(N)(=O)=O)cc3)c2)S1
CDK16 (human)
  kinase still bound, per cent of control: 32%
PIM1 (human) [1]
  kinase still bound, per cent of control: 16%
MAP2K3 (human)
  kinase still bound, per cent of control: 24%
MYO3B (human)
  kinase still bound, per cent of control: 2.9%
PIM2 (human) [2]
  kinase still bound, per cent of control: 6.2%
PIM3 (human)
  kinase still bound, per cent of control: 13%
HIPK1 (human)
  kinase still bound, per cent of control: 25%

## N=C1NC(=O)/C(=C/c2ccc(-c3ccc4c(C(=O)Nc5ccc(N6CCNCC6)cc5)cccc4c3)o2)S1
PIM1 (human) [3]
  IC50: 0.131 µM
PIM2 (human) [4]
  IC50: 0.115 µM
TLK1 (human)
  kinase still bound, per cent of control: 12%
[5]
  kinase still bound, per cent of control: 32%
CDK16 (human)
  kinase still bound, per cent of control: 24%
STK17B (human)
  kinase still bound, per cent of control: 0.4%
MAP3K7 (human)
  kinase still bound, per cent of control: 2.6%
DAPK2 (human)
  kinase still bound, per cent of control: 24%
PIM1 (human) [1]
  kinase still bound, per cent of control: 6.4%
MAPKAPK5 (human)
  kinase still bound, per cent of control: 12%
STK24 (human)
  kinase still bound, per cent of control: 23%
DYRK1B (human)
  kinase still bound, per cent of control: 10%
RIPK4 (human)
  kinase still bound, per cent of control: 1.3%
TGFBR2 (human)
  kinase still bound, per cent of control: 5.7%
PLK4 (human)
  kinase still bound, per cent of control: 3.8%
GSK3A (human)
  kinase still bound, per cent of control: 18%
MAP2K3 (human)
  kinase still bound, per cent of control: 4.6%
STK17A (human)
  kinase still bound, per cent of control: 0.1%
ACVR2B (human)
  kinase still bound, per cent of control: 33%
PIM2 (human) [2]
  kinase still bound, per cent of control: 0.65%
CSNK2A2 (human)
  kinase still bound, per cent of control: 33%
CSNK1E (human)
  kinase still bound, per cent of control: 15%
DAPK1 (human)
  kinase still bound, per cent of control: 12%
ANKK1 (human)
  kinase still bound, per cent of control: 25%
RPS6KA2 KD2 (human)
  kinase still bound, per cent of control: 26%
PIM3 (human)
  kinase still bound, per cent of control: 8.2%
[6]
  kinase still bound, per cent of control: 8.8%
MAP4K2 (human)
  kinase still bound, per cent of control: 26%
RPS6KA6 KD2 (human)
  kinase still bound, per cent of control: 22%
HIPK1 (human)
  kinase still bound, per cent of control: 0.25%
RPS6KA1 KD2 (human)
  kinase still bound, per cent of control: 17%
GSK3B (human)
  kinase still bound, per cent of control: 34%

## COc1cc(C(=O)NC2CCN(C)CC2)ccc1Nc1ncc2c(n1)N(C1CCCC1)CC(C)C(=O)N2C (configuration not stated)
TTK (human) [7]
  IC50: > 10 µM
ALK (human)
  kinase still bound, per cent of control: 20%
DAPK2 (human)
  kinase still bound, per cent of control: 21%
DAPK3 (human)
  kinase still bound, per cent of control: 8.2%
CAMK2A (human)
  kinase still bound, per cent of control: 20%
TNK1 (human)
  kinase still bound, per cent of control: 24%
MAPK7 (human)
  kinase still bound, per cent of control: 9.6%
PLK4 (human)
  kinase still bound, per cent of control: 16%
PLK1 (human)
  kinase still bound, per cent of control: 22%
CAMKK2 (human)
  kinase still bound, per cent of control: 7.6%
TTK (human) [8]
  Kd: 3.92 µM
TTK (human) [8]; compound 10.0 µM
  kinase still bound, per cent of control: 9.4%
PTK2 (human)
  kinase still bound, per cent of control: 17%
MINK1 (human)
  kinase still bound, per cent of control: 33%
PRKD1 (human)
  kinase still bound, per cent of control: 34%
DAPK1 (human)
  kinase still bound, per cent of control: 7.2%
RPS6KA2 KD2 (human)
  kinase still bound, per cent of control: 34%
DCLK1 (human)
  kinase still bound, per cent of control: 3.4%
CAMKK1 (human)
  kinase still bound, per cent of control: 33%
DCLK2 (human)
  kinase still bound, per cent of control: 1.8%
PLK3 (human)
  kinase still bound, per cent of control: 2.8%
CLK2 (human)
  kinase still bound, per cent of control: 15%
RPS6KA6 KD2 (human)
  kinase still bound, per cent of control: 32%
MYLK (human)
  kinase still bound, per cent of control: 0.45%
MET (human)
  kinase still bound, per cent of control: 20%
GAK (human)
  kinase still bound, per cent of control: 3.2%
SLK (human)
  kinase still bound, per cent of control: 2%
STK33 (human)
  kinase still bound, per cent of control: 7%
